Values quoted from earlier work, collected in patent US20070028401A1, “Powdered preparations containing a mixture of 2,4,6-trianilino-p-(carbo-2'-ethylhexyl-1'-oxi)-1,3,5-triazine and diethylamino-hydroxybenzoyl-hexyl-benzoate” (BASF Aktiengesellschaft, priority 2003, published 2007).
Read-outs that look alike come from different tables or passages of the source.

Row | absorbance coefficient (at 314 nm) | absorbance coefficient (at 354 nm) | SMILES
1 | > 1500 |  | CCCCC(CC)COC(=O)c1ccc(Nc2nc(Nc3ccc(C(=O)OCC(CC)CCCC)cc3)nc(Nc3ccc(C(=O)OCC(CC)CCCC)cc3)n2)cc1 (centres unmarked) [Uvinul T150, 2,4,6-Trianilino-p-(carbo-2′-ethylhexyl-1′-oxy)-1,3,5-triazine]
2 |  | 940 | CCCCCCOC(=O)c1ccccc1C(=O)c1ccc(N(CC)CC)cc1O [Uvinul® A Plus, Diethylamino hydroxybenzoyl hexyl benzoate]
